# Test results published in patent US11001591B2, “TRAF 6 inhibitors” (HELMHOLTZ ZENTRUM MUENCHEN—DEUTSCHES FORSCHUNGSZENTRUM FÜR …, priority 2016, dated 2021).
# Biological target: T1, TRAF6-UBC13 interaction (Homo sapiens, UniProt Q9Y4K3)
# T1 construct: RING-Zincfinger1 (RZ1) domain (residues 50-159) of TRAF6 wildtype; made in house; host or cells: E. coli BL21 codon plus RIPL
# T1 sequence (Q9Y4K3 50-159): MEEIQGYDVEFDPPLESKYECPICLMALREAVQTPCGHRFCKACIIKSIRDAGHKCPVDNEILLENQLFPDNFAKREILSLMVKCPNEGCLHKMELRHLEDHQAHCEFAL
# Experiment: ALPHAScreen TRAF6WTStrepII-Ubc13FH interaction assay
# Type: binding
# Conditions: inhibition of TRAF6-UBC13 interaction
# Description: In order to identify small molecules that specifically target the RZ1 domain of TRAF6 and thereby prevent its binding to Ubc13, the ALPHAScreen technology (PerkinElmer) was chosen to detect TRAF6WTStrepII-Ubc13FH interaction in High-Throughput-Screenings as well as Structure Activity Relationship (SAR) analysis.
# For performance of an automated ALPHAScreen assay, all following components were pre-diluted in ALPHAScreen buffer (1×PBS, 0.5% BSA, 0.01% Tween-20). First, the TRAF6 protein (end concentration 100 nM, 30 μL volume) was added to 384-well-opti-plates involving the MultiFlo dispensing system (BioTek) followed by transfer of the compounds via the Sciclone G3 transfer station (PerkinElmer). After addition of Ubc13FH (end concentration 75 nM, 10 μL volume) with the MultiFlo system and incubation for one hour at room temperature, both beads (Strep-Tactin Alpha Donor beads and Nickel-Chelate acceptor beads; end concentrations 4 μg each, 10 μL volume each) were mixed and added using the MultiFlo system in subdued light. Read-out of the plates occurred after another hour of incubation at room temperature. Statistical parameters including the coefficient of variation, Z′ factor and signal window were calculated to determine the quality of the HTS campaign. To evaluate the efficacy of the compounds, ALPHAScreen units of compound-treated samples were referred to DMSO control treated samples. Thereby, the TRAF6D57K mutant served as the control for minimum signal and was included on every plate of the screening. Compounds that inhibited TRAF6WTStrepII-Ubc13FH by more than 25% were considered as actives. After elimination of ALPHAScreen frequent hitter compounds and His-tag frequent hitters (Schorpp, K., I. Rothenaigner, E. Salmina, et al., Identification of Small-Molecule Frequent Hitters from AlphaScreen High-Throughput Screens. J Biomol Screen, 2014. 19(5): p. 715-26), 178 compounds were defined as primary hits and were subsequently tested in five-point serial dilution assays (2.5-40 μM) in TRAF6WTStrepII-Ubc13FH ALPHAScreen experiments. Only compounds with dose-dependent effects on TRAF6WTStrepII-Ubc13FH (n=27) were taken for further research. For analog testing, all compounds were analyzed in ten-point titration (0.2-100 μM) in TRAF6WTStrepII-Ubc13FH ALPHAScreen experiments. In parallel, the compounds were tested in the ALPHAScreen TruHits Kit (PerkinElmer) to rule out unspecific interference with the ALPHAScreen technology.
row,Compound,IC50
1,"Cc1nn(-c2ccc3nnc(C)n3n2)c(C)c1CCC(=O)N1CCN(c2ccccc2F)CC1 [Compound 14, 3-(3,5-dimethyl-1-(3-methyl-[1,2,4]triazolo[4,3-b]pyridazin-6-yl)-1H-pyrazol-4-yl)-1-(4-(2-fluorophenyl)piperazin-1-yl)propan-1-one]",≤ 30 µM
2,"Cc1nn(-c2ccc3nnc(C)n3n2)c(C)c1CCC(=O)NCc1ccc(Cl)cc1 [Compound 18, N-(4-chlorobenzyl)-3-(3,5-dimethyl-1-(3-methyl-[1,2,4]triazolo[4,3-b]pyridazin-6-yl)-1H-pyrazol-4-yl)propanamide]",≤ 30 µM
3,"Cc1nn(-c2ccc3nnc(C)n3n2)c(C)c1CCC(=O)NCCc1c[nH]c2ccccc12 [Compound 20, N-(2-(1H-indol-3-yl)ethyl)-3-(3,5-dimethyl-1-(3-methyl-[1,2,4]triazolo[4,3-b]pyridazin-6-yl)-1H-pyrazol-4-yl)propanamide]",≤ 30 µM
4,"Cc1ccc(C)c(N2CCN(C(=O)CCc3c(C)nn(-c4ccc5nnc(C)n5n4)c3C)CC2)c1 [Compound 17, 3-(3,5-dimethyl-1-(3-methyl-[1,2,4]triazolo[4,3-b]pyridazin-6-yl)-1H-pyrazol-4-yl)-1-(4-(2,5-dimethylphenyl)piperazin-1-yl)propan-1-one]",≤ 30 µM
5,"Cc1nn(-c2ccc3nnc(C)n3n2)c(C)c1CCC(=O)NCCCc1ccccc1 [Compound 15, 3-(3,5-dimethyl-1-(3-methyl-[1,2,4]triazolo[4,3-b]pyridazin-6-yl)-1H-pyrazol-4-yl)-N-(3-phenylpropyl)propanamide]",≤ 30 µM
6,"Cc1nn(-c2ccc3nnc(C)n3n2)c(C)c1CCC(=O)NCc1ccccc1 [Compound 21, N-benzyl-3-(3,5-dimethyl-1-(3-methyl-[1,2,4]triazolo[4,3-b]pyridazin-6-yl)-1H-pyrazol-4-yl)propanamide]",≤ 30 µM
7,"Cc1nn(-c2ccc3nnc(C)n3n2)c(C)c1CCC(=O)NCc1cccs1 [Compound 19, 3-(3,5-dimethyl-1-(3-methyl-[1,2,4]triazolo[4,3-b]pyridazin-6-yl)-1H-pyrazol-4-yl)-N-(thiophen-2-ylmethyl)propanamide]",≤ 30 µM
8,"Cc1nn(-c2ccc3nncn3n2)c(C)c1CCC(=O)N1CCC(Cc2ccccc2)CC1 [Compound 16, 3-(1-([1,2,4]triazolo[4,3-b]pyridazin-6-yl)-3,5-dimethyl-1H-pyrazol-4-yl)-1-(4-benzylpiperidin-1-yl)propan-1-one]",≤ 30 µM
9,"COc1cccc(N2CCN(C(=O)CCc3c(C)nn(-c4ccc5nncn5n4)c3C)CC2)c1 [Compound 8, 3-(1-([1,2,4]triazolo[4,3-b]pyridazin-6-yl)-3,5-dimethyl-1H-pyrazol-4-yl)-1-(4-(3-methoxyphenyl)piperazin-1-yl)propan-1-one]",≤ 10 µM
10,"Cc1nn(-c2ccc3nncn3n2)c(C)c1CCC(=O)N1CCN(c2ccccc2)CC1 [Compound 10, 3-(1-([1,2,4]triazolo[4,3-b]pyridazin-6-yl)-3,5-dimethyl-1H-pyrazol-4-yl)-1-(4-phenylpiperazin-1-yl)propan-1-one]",≤ 10 µM

# The remaining lines, values ahead:
row,IC50,Compound
1,≤ 10 µM,"Cc1nn(-c2ccc3nncn3n2)c(C)c1CCC(=O)N1CCN(c2ccc(F)cc2)CC1 [Compound 5, 3-(1-([1,2,4]triazolo[4,3-b]pyridazin-6-yl)-3,5-dimethyl-1H-pyrazol-4-yl)-1-(4-(4-fluorophenyl)piperazin-1-yl)propan-1-one]"
2,≤ 3 µM,"Cc1nn(-c2ccc3nnc(C)n3n2)c(C)c1CCC(=O)N1CCN(c2ccccc2)CC1 [Compound 1, 3-(3,5-dimethyl-1-(3-methyl-[1,2,4]triazolo[4,3-b]pyridazin-6-yl)-1H-pyrazol-4-yl)-1-(4-phenylpiperazin-1-yl)propan-1-one]"
3,≤ 3 µM,"Cc1nn(-c2ccc3nnc(C)n3n2)c(C)c1CCC(=O)N1CCN(c2ccc(F)cc2)CC1 [Compound 4, 3-(3,5-dimethyl-1-(3-methyl-[1,2,4]triazolo[4,3-b]pyridazin-6-yl)-1H-pyrazol-4-yl)-1-(4-(4-fluorophenyl)piperazin-1-yl)propan-1-one]"
4,≤ 10 µM,"Cc1ccc(CNC(=O)CCc2c(C)nn(-c3ccc4nnc(C)n4n3)c2C)o1 [Compound 13, 3-(3,5-dimethyl-1-(3-methyl-[1,2,4]triazolo[4,3-b]pyridazin-6-yl)-1H-pyrazol-4-yl)-N-((5-methylfuran-2-yl)methyl)propanamide]"
5,≤ 3 µM,"COc1cccc(N2CCN(C(=O)CCc3c(C)nn(-c4ccc5nnc(C)n5n4)c3C)CC2)c1 [Compound 61, 3-(3,5-dimethyl-1-(3-methyl-[1,2,4]triazolo[4,3-b]pyridazin-6-yl)-1H-pyrazol-4-yl)-1-(4-(3-methoxyphenyl)piperazin-1-yl)propan-1-one]"
6,≤ 10 µM,"Cc1nn(-c2ccc3nnc(C)n3n2)c(C)c1CCC(=O)N1CCN(Cc2cccc(Cl)c2)CC1 [Compound 11, 1-(4-(3-chlorobenzyl)piperazin-1-yl)-3-(3,5-dimethyl-1-(3-methyl-[1,2,4]triazolo[4,3-b]pyridazin-6-yl)-1H-pyrazol-4-yl)propan-1-one]"
7,≤ 10 µM,"Cc1nn(-c2ccc3nnc(C)n3n2)c(C)c1CCC(=O)N1CCCC1 [Compound 6, 3-(3,5-dimethyl-1-(3-methyl-[1,2,4]triazolo[4,3-b]pyridazin-6-yl)-1H-pyrazol-4-yl)-1-(pyrrolidin-1-yl)propan-1-one]"
8,≤ 10 µM,"COc1ccc(N2CCN(C(=O)CCc3c(C)nn(-c4ccc5nncn5n4)c3C)CC2)cc1 [Compound 9, 3-(1-([1,2,4]triazolo[4,3-b]pyridazin-6-yl)-3,5-dimethyl-1H-pyrazol-4-yl)-1-(4-(4-methoxyphenyl)piperazin-1-yl)propan-1-one]"
9,≤ 3 µM,"Cc1nn(-c2ccc3nnc(C)n3n2)c(C)c1CCC(=O)N1CCN(c2ccccn2)CC1 [Compound 2, 3-(3,5-dimethyl-1-(3-methyl-[1,2,4]triazolo[4,3-b]pyridazin-6-yl)-1H-pyrazol-4-yl)-1-(4-(pyridin-2-yl)piperazin-1-yl)propan-1-one]"
10,≤ 10 µM,"COc1ccc(N2CCN(C(=O)CCc3c(C)nn(-c4ccc5nnc(C)n5n4)c3C)CC2)cc1 [Compound 7, 3-(3,5-dimethyl-1-(3-methyl-[1,2,4]triazolo[4,3-b]pyridazin-6-yl)-1H-pyrazol-4-yl)-1-(4-(4-methoxyphenyl)piperazin-1-yl)propan-1-one]"
11,≤ 10 µM,"Cc1nn(-c2ccc3nncn3n2)c(C)c1CCC(=O)N1CCN(c2ccccn2)CC1 [Compound 12, 3-(1-([1,2,4]triazolo[4,3-b]pyridazin-6-yl)-3,5-dimethyl-1H-pyrazol-4-yl)-1-(4-(pyridin-2-yl)piperazin-1-yl)propan-1-one]"

# Same assay, conditions: inhibition of TRAF6-UBC13 interaction; read-out: IC50 Alphascreen
row,inhibition at 100 µM,Compound
1,≥ 30%,"CCN1CCN(C(=O)CCc2c(C)nn(-c3ccc4nnc(C)n4n3)c2C)CC1 [Compound 23, 3-(3,5-dimethyl-1-(3-methyl-[1,2,4]triazolo[4,3-b]pyridazin-6-yl)-1H-pyrazol-4-yl)-1-(4-ethylpiperazin-1-yl)propan-1-one]"
2,≥ 30%,"Cc1nn(-c2ccc3nncn3n2)c(C)c1CCC(=O)NCCCc1ccccc1 [Compound 22, 3-(1-([1,2,4]triazolo[4,3-b]pyridazin-6-yl)-3,5-dimethyl-1H-pyrazol-4-yl)-N-(3-phenylpropyl)propanamide]"
3,≥ 30%,"Cc1nn(-c2ccc3nncn3n2)c(C)c1CCC(=O)N1CCCC1 [Compound 25, 3-(1-([1,2,4]triazolo[4,3-b]pyridazin-6-yl)-3,5-dimethyl-1H-pyrazol-4-yl)-1-(pyrrolidin-1-yl)propan-1-one]"
4,≥ 30%,"Cc1nn(-c2ccc3nncn3n2)c(C)c1CCC(=O)N1CCC(C)CC1 [Compound 24, 3-(1-([1,2,4]triazolo[4,3-b]pyridazin-6-yl)-3,5-dimethyl-1H-pyrazol-4-yl)-1-(4-methylpiperidin-1-yl)propan-1-one]"
5,≥ 30%,"Cc1nn(-c2ccc3nnc(C)n3n2)c(C)c1CCC(=O)NCCSCc1ccco1 [Compound 27, 3-(3,5-dimethyl-1-(3-methyl-[1,2,4]triazolo[4,3-b]pyridazin-6-yl)-1H-pyrazol-4-yl)-N-(2-((furan-2-ylmethyl)thio)ethyl)propanamide]"
